According to paper PMC6844378, “Structure activity relationship studies on Amb639752: toward the identification of a common pharmacophoric structure for DGKα inhibitors” (Journal of Enzyme Inhibition and Medicinal Chemistry, 2019):
Read-outs that look alike come from different tables or passages of the source.

Experiments:
5HT2A = system: 5HT2A; set-up: method as in PMID 27974147; details: antagonistic activity on 5-HT2 receptors; cited from earlier work
[1] = set-up: method as in PMID 26420856; details: mice, rapid clearance; cited from earlier work
DGK isoforms = system: DGK isoforms; set-up: method as in PMID 10718334, PMID 23949095; details: cited from earlier work
[2] = system: T cells from XLP-1 patients; set-up: method as in PMID 26764158; details: pre-treatment with inhibitor; cited from earlier work
XLP-1 model = details: cited from earlier work
DGKα [3] = target: T1, DGKα (Homo sapiens, UniProt P23743); test: DGK assay on OST-DGKα enriched MDCK homogenates; type: biochemical; set-up: expressed in transfected cells; host or cells: MDCK cells (vector-infected, doxycycline-induced), crude homogenate; details: for remaining activity at 100 µM: percentage of residual DGKα activity compared to DMSO control, OST-DGKα overexpressing cell lysates, saturating DAG and ATP, read-out: Residue activity at 100 µM
T1 sequence (P23743 whole entry): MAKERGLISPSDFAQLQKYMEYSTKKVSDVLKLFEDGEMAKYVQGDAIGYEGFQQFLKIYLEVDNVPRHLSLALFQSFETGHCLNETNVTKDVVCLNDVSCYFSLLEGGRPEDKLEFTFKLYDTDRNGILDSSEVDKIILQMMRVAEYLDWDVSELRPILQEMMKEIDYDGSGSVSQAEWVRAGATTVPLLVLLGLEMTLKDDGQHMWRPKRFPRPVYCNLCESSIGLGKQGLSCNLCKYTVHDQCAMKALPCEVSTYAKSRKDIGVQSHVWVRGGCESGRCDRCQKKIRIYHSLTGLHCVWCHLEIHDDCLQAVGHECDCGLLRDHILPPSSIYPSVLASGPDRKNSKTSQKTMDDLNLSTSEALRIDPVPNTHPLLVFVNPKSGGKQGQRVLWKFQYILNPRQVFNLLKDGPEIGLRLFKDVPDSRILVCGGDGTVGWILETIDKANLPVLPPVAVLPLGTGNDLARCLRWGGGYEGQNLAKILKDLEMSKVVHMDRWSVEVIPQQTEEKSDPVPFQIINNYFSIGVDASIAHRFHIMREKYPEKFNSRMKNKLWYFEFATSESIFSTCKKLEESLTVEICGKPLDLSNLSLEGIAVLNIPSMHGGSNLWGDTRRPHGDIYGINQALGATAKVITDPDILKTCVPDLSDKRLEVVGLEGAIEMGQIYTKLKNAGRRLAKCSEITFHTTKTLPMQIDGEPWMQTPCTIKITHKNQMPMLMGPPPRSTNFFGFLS
Protocol: Madin-Darby canine kidney (MDCK) cells stably expressing One Strep Tag DGKα (OST-DGKα) were prepared by infecting MDCK cells with a vector expressing an inducible OST tagged DGKα constructs. MDCK cells infected with empty vector were used as controls. MDCK cells were cultured in MEM (minimal essential medium) with 5% FBS (foetal bovine serum) and 1% antibiotic–antimycotic solution. Routinely, cells were splitted every 3–4 days with trypsin–EDTA 0.25% in standard 100 mm dishes.
Large cultures of MDCK cells for enzyme preparation were done by plating 5 × 10^6 cells in 245 mm^2 dishes. Once they reached nearly 70% confluence, cells were treated with doxycycline (1 µg/mL, two days). […] Cells were collected with a rubber scraper, homogenised by passing them through a 29 G-needle syringe 20 times and stored in aliquots at –80 °C. Presence of OST-DGKα was confirmed by western blotting and enzyme assay, transduced DGKα has an activity >100 folds the endogenous DGK.
Essentionally, the same procedure was followed as reported previously in Velnati et al.[9] In brief, DGK activity was assayed by measuring initial velocities (5 min at 27 °C) in presence of saturating substrate concentrations. Reaction conditions: 0.9 µg/µL 1,2-dioleoyl-sn-glycerol, 5 mM ATP, 0.01 µCi/µL [γ^32P]-ATP, 1 mM sodium orthovanadate, 10 mM MgCl2, 1.2 mM EGTA in 7.5 mM Hepes pH 8[12]. Reaction mixture is assembled mixing enzyme (24.5 µL of homogenate), 100× inhibitor or DMSO (0.5 µL), 5× ATP solution (10 µL of 25 mM ATP, 0.05 µCi/µL [γ^32P]-ATP (Perkin-Elmer, Milan, Italy), 5 mM sodium orthovanadate, 50 mM MgCl2), and 3.3× DAG solution (15 µL of 3 µg/µL 1,2-dioleoyl-sn-glycerol resuspended by sonication in 4 mM EGTA in 25 mM Hepes pH 8). The reaction was stopped after 5 min by adding 200 µL of freshly prepared 1 M HCl and lipid was extracted by adding 200 µL of CH3OH:CHCl3 1:1 solution and vortexing for 1 min. The two phases were separated by centrifugation (12,000 RCF for 2 min). Twenty-five microlitres of the lower organic phase was spotted in small drops on silica TLC plates. TLC was run 10 cm and dried before radioactive signals were detected by GS-250 molecular imager and was quantified by quantity one (Bio-Rad, Hercules, CA) software assuring the absence of saturated spots.
Percentage residual activity was calculated as follows: (OST-DGKα homogenate with inhibitor – vector homogenate)/(OST-DGKα homogenate with DMSO – vector homogenate)×100.
Data for the screen on OST-DGKα homogenates are the mean of duplicates. The compounds showing inhibitory activity in this assay were tested >4 times and the mean ± SEM is reported.
To calculate IC50 values of active inhibitors, the inhibitor activity was measured at least three times at 0.1, 1.0, 10.0, and 100.0 µM concentration. Data were analysed using [inhibitor] vs. normalised response parameters with least square [ordinary] curve fitting method in GraphPad PRISM 8.0 software (GraphPad Software, La Jolla, CA) mentioning 95% confidence interval and IC50 values always greater than 0.0. […] In all the experiments, the data were normalised with the controls.
Each inhibitor was tested in duplicate at least once, and DGKα activity was expressed as percentage of residual DGKα activity compared to DMSO control in the same assay. Assay uses OST-DGKα overexpressing cell lysates in presence of saturating exogenous DAG and ATP. We considered R59022 (commercially available) and the lead compound Amb63975230 as our reference molecules.
To measure the inhibitor potency, we determined the IC50 values for the compounds that resulted active when tested at 100 µM by measuring the residual OST-DGKα activity over a dose range of inhibitor concentrations (0.1 µM, 1.0 µM, 10.0 µM, and 100.0 µM).

serotonin receptors [4] = test: Superoxide anion production: serotonin effect on PMA-induced oxidative burst in monocytes; type: cell-based; details: drugs 10 µM, 1 h; serotonin 1 µM; PMA 1 µM 30 min; human monocytes
Protocol: Human monocytes were isolated from healthy anonymous human buffy coats (provided by the Transfusion Service of Ospedale Maggiore della Carità, Novara, Italy) by the standard technique of dextran sedimentation and Histopaque (density = 1.077 g cm^3, Sigma-Aldrich, Milano, Italy) gradient centrifugation (400×g, 30 min, room temperature) and recovered by fine suction at the interface, as described previously. Purified monocytes populations were obtained by adhesion (90 min, 37 °C, 5% CO2) in serum-free RPMI 1640 medium (Sigma-Aldrich, Milano, Italy) supplemented with 2 mM glutamine and antibiotics. Cell viability (trypan blue dye exclusion) was usually >98%.
All the experiments were performed in triplicate using cells isolated from each single donor.
Monocytes (250,000 cells/well) were treated for 1 h with the indicated drugs (10 µM) with or without serotonin (1 µM). Then, cells were stimulated with phorbol 12-myristate 13-acetate (PMA; Sigma-Aldrich, Milano, Italy) 1 µM for 30 min. PMA is a well-known stimulus that induces a strong and significant respiratory burst via PKC activation. Superoxide anion production was then evaluated by the superoxide dismutase (SOD)-sensitive cytochrome C (CytC) reduction assay and expressed as nmoles CytC reduced/10^6 cells/30 min, using an extinction coefficient of 21.1 mM. To avoid interference with spectrophotometrical recordings, cells were incubated with RPMI 1640 without phenol red, antibiotics, and FBS.
To this purpose, we measured the effect of serotonin on PMA-induced oxidative burst in human monocytes. As previously shown, 1 µM serotonin reverses the oxidative burst to control values.
Figure 8. […] Results are expressed as n moles of reduced cytochrome C/10^6 cells. Data are means ± SEM of 10 independent experiments performed in triplicate.

serotonin receptors [5] = details: read-out: IC50 as serotonin antagonist; cited from earlier work
dopaminergic receptors = target: dopaminergic receptors; set-up: method as in PMID 2860558; details: cited from earlier work
[6] = set-up: method as in PMID 27974147; details: in human; cited from earlier work
DGKα [7] = target: T1, DGKα; set-up: expressed in transfected cells; host or cells: MDCK cells (vector-infected, doxycycline-induced), crude homogenate; method as in PMID 30611057; details: in our assay system; cited from earlier work
SAP-deficient T cells = test: RICD assay in SAP silenced T cells; type: cell-based, human; details: 10 µM, 30 min pre-treatment; OKT3 10 ng/mL, 24 h; SAP siRNA
Protocol: PBL were isolated from healthy anonymous human donors by Ficoll-Paque PLUS (GE Healthcare, Chicago, IL) density gradient centrifugation, washed, and resuspended at 2 × 10^6 cell/mL in RPMI-GlutaMAX containing 10% heat inactivated FCS, 2 mM glutamine, and 100 U/mL of penicillin and streptomycin. T cells were activated with 1 µg/mL anti-CD3 (UCHT1) and anti-CD28 (clone CD28.2) antibodies. After three days, activated T cells were washed and cultured in medium additionated of 100 IU/mL rhIL-2 (Peprotech, Rocky Hill, NJ) at 1.2 × 10^6 cells/mL for ≥7 days by changing media for every 2–3 days.
Activated human PBLs were transfected with 200 pmol of siRNA oligonucleotides specific for the target protein (Stealth Select siRNA; Life Technologies, Carlsbad, CA) or a non-specific control oligo (Life Technologies, Carlsbad, CA). Transient transfections were performed using Amaxa nucleofector kits for human T cells (Lonza, Basel, Switzerland) and the Amaxa Nucleofector II or 4D systems (programmes T-20 or EI-115). Cells were cultured in IL-2 (100 IU/mL) for four days to allow target gene knockdown. Knockdown efficiency was periodically evaluated by Western blotting.
To test restimulation induced cell death, activated T cells (10^5 cells/well) were plated in triplicate in 96-well round-bottom plate and treated with anti-CD3 (clone OKT3) (10 ng/mL) in RPMI-GlutaMAX supplemented with 100 IU/mL rhIL-2 for 24 h. In these assays, inhibitors (10 µM) were added 30 min before the restimulation with OKT3. 24 h after treatment, cells were stained with 20 ng/mL propidium iodide and collected for a constant time of 30 s per sample on Attune Nxt Flow Cytometer (Thermo Fisher Scientific, Waltham, MA). Cell death is expressed as % cell loss and calculated as: % cell loss=(1−(number of viable cells in sample/number of viable cells in control)×100)
Results were expressed as mean ± standard error of the mean (SEM). We always compared controls and SAP silenced lymphocytes from the same donors as there is a large individual variability in RICD sensitivity.
To evaluate inhibitor efficacy in physiological context, we modelled XLP-1 by silencing SAP in primary peripheral blood T lymphocytes (PBLs) and restimulating them with anti-CD3 antibody (OKT3 10 ng/mL, 24 h). We pre-treated the cells with the indicated inhibitors for 30 min at a concentration of 10 µM[8].
Figure 9. DGKα inhibitors partially restores apoptosis in SAP deficient lymphocytes. […] After 4 days, the cells were restimulated with CD3 agonist OKT3 (10 ng/mL) in presence of respective inhibitor. Vehicle (DMSO) was used as control. Twenty-four hours later, the % of cell loss was evaluated by PI staining. Data are the mean ± SEM of nine independent experiments performed in triplicate.

In the case of `Cc1nc2sccn2c(=O)c1CCN1CCC(=C(c2ccccc2)c2ccc(F)cc2)CC1` [Compound R59022], the IC50 (5HT2A) is given as 0.0022 µM, the t1/2 [1] is given as roughly 2 h and the DGK isoforms targeted (DGK isoforms) is given as “type III and V (ε e θ)”. For the same compound, the “rescue of defective RICD in T cells from XLP-1 patients” value [2] was “rescued”, the “effect in an in vivo model of XLP-1” value (XLP-1 model) was “beneficial effects” and the inhibition at 100 µM (DGKα [3]; 100 µM) was 73%. For the same compound, the remaining activity at 100 µM (DGKα [3]; 100 µM) was 27% and the IC50 (DGKα [3]; residual OST-DGKα activity at 0.1, 1.0, 10.0 and 100.0 µM) was 15.2 ± 5.8 µM.

In the case of `Cc1nc2sccn2c(=O)c1CCN1CCC(=C(c2ccc(F)cc2)c2ccc(F)cc2)CC1` [ritanserin], the “effect on serotonin action on PMA-induced oxidative burst” value (serotonin receptors [4]) is listed as “impaired serotonin action”, the IC50 (serotonin receptors [5]) is listed as 0.0009 µM and the IC50 (dopaminergic receptors) is listed as 0.069 µM. The t1/2 [6] was 40 h and the IC50 (DGKα [7]) was 17 µM.

With `O=C(c1ccc(F)cc1)C1CCN(CCn2c(=O)[nH]c3ccccc3c2=O)CC1` [ketanserin, reference compound] the “effect on serotonin action on PMA-induced oxidative burst” value (serotonin receptors [4]) was “impaired serotonin action” and the “rescue of RICD (apoptosis) in SAP-deficient T cells” value (SAP-deficient T cells) was “inactive”.

In the case of `O=c1c2ccccc2[nH]c(=S)n1CCN1CCC(=C(c2ccc(F)cc2)c2ccc(F)cc2)CC1` [Compound R59949, 3-[2-(4-[bis-(4-fluorophenyl)methylene]-1-piperidinyl)ethyl]-2,3-dihydro-2-thioxo-4(1h)quinazolinone], the IC50 (5HT2A) is listed as 0.0092 µM, the t1/2 [1] is listed as roughly 2 h and the DGK isoforms targeted (DGK isoforms) is listed as “type I and II (γ, δ e κ)”. The “rescue of defective RICD in T cells from XLP-1 patients” value [2] was “rescued”, the remaining activity at 100 µM (DGKα [3]; 100 µM) was 28% and the IC50 (DGKα [7]) was 11 µM.
